{"source": "patent US20260185056A1", "about": "“TRIPLE TISSUE CULTURE FUSION” (IMBA - INSTITUT FÜR MOLEKULARE BIOTECHNOLOGIE GMBH, priority 2022, published 2026)", "format_in_all_cases": "cell-based, human", "key": {"[1]": {"tested_on": "dopaminergic (TH+) axons in striatal and cortical tissue of fused organoids", "assay": "Chronic cocaine treatment of fused organoids: TH+ varicosity density and diameter", "conditions": "for density of TH+ varicosities on axons / diameter of TH+ varicosities: chronic 0.7 μM, vs control; for density of TH+ varicosities on axons: 1 h every 3 days, day 40-130; for diameter of TH+ varicosities: day 130", "protocol": "A, Schematic for the treatment of fused organoids with cocaine. […] Functional, morphological and transcriptional analysis was performed on day 130. B, Representative images of dopaminergic (TH^+) axons in striatal and cortical tissue in control, chronic and withdrawal fused organoids. C, Schematic for the extraction of varicosity density and varicosity diameter in dopaminergic axons. D, Quantifications of TH^+ varicosity density in striatal and cortical tissue. N=6-8 organoids per condition, 39-49 axons. E, Measurement of varicosity diameter (axon average) in striatal and cortical tissue. N=6-8 organoids, 36-47 axons per condition and 1055|1552|1347 (striatal) and 923|1063|1340 (cortical) boutons measured. F, Schematic of the parameters' frequency and duration from GCAMP traces after extraction with CaImAn. G-H, fused organoids with GCAMP6S expression in either VM, striatal or cortical tissue were recorded on day 130 in control, chronic and withdrawal conditions (10-21 organoids per condition). […] 1776|2144|4254 individual calcium events (striatal) and 1437|6931|8000 individual calcium events (cortical). H, Analysis of calcium event frequency of striatal (n=248|245|680) and cortical (175|936|885) neurons in control, chronic and withdrawal conditions. I-J, Volcano plot comparing bulk RNAseq data of day 130 forebrain organoids chronic versus control (I) and withdrawal versus control (J) (n=6-9 organoids of 2-3 batches). […] Samples were analyzed with one-way ANOVA followed by unpaired Mann-Whitney test.\n2Eci tissue clearing was performed as previously described (Masselink & Reumann, et al., Development 146, 2019). In brief, organoids were fixed with 4% formaldehyde in PBS for 4 h at RT. For 3D immunohistochemistry, PBS-TxDB was prepared: 10×PBS, 5% BSA and 2% TX100 were pre-mixed and filled up with distilled water to achieve approx. 70% of aimed volume (e.g. for 11 of PBS-TxDB, 100 ml of 10×PBS, 50 g BSA and 20 ml TX100 were used and filled up to 700 ml with distilled water. 20% DMSO was then added slowly under heavy stirring-rapid addition of DMSO may result in irreversible BSA aggregation. The solution was filled up to 100% with distilled water and sterile filtered. PBS-TxDB is stable at RT for at least several weeks, or at 4° C. for up to a year.\nOrganoids were blotted/permeabilized on a rotor or shaking plate for 1-2 days in 10 ml PBS-TxDB at RT. Organoids (dependent on the size, between 3 and 6) were then transferred into 2 ml Eppendorf tubes containing primary antibody solution in PBS-TxDB (between 500 μl to 1 ml) and transferred to a rotor or shaking plate for 5 days. Organoids were then washed in 10 ml PBS-TxDB for 2 days (1× rinse, 3×PBS-TxDB exchange) and the same steps were repeated for secondaries. After washing off the residual secondaries, organoids were washed in PBS for 1 h and then fixed in 4% Formaldehyde solution for 30 min-2 h. Organoids were then ready to be dehydrated in a 1-Propanol gradient (30%, 50%, 70%, 100%, 100%, 4-8 h per step). As no endogenous fluorescence had to be maintained, pH adjustment of the 1-Propanol was skipped. After dehydration, organoids were transferred into Ethyl Cinnamate and were ready for imaging as soon as completely transparent (1-3 h or overnight at RT). Cleared organoids were stored at room temperature and should not be transferred to 4° C., as Ethyl Cinnamate crystallizes out at lower temperatures. […]"}, "[2]": {"tested_on": "VM, striatal and cortical neurons of fused organoids", "assay": "Chronic cocaine treatment of fused organoids: GCAMP6S calcium imaging", "conditions": "for calcium event frequency: VM, striatal and cortical patterned neurons", "protocol": "(§1) A, Schematic for the treatment of fused organoids with cocaine. […] Functional, morphological and transcriptional analysis was performed on day 130. B, Representative images of dopaminergic (TH^+) axons in striatal and cortical tissue in control, chronic and withdrawal fused organoids. C, Schematic for the extraction of varicosity density and varicosity diameter in dopaminergic axons. D, Quantifications of TH^+ varicosity density in striatal and cortical tissue. N=6-8 organoids per condition, 39-49 axons. E, Measurement of varicosity diameter (axon average) in striatal and cortical tissue. N=6-8 organoids, 36-47 axons per condition and 1055|1552|1347 (striatal) and 923|1063|1340 (cortical) boutons measured. F, Schematic of the parameters' frequency and duration from GCAMP traces after extraction with CaImAn. G-H, fused organoids with GCAMP6S expression in either VM, striatal or cortical tissue were recorded on day 130 in control, chronic and withdrawal conditions (10-21 organoids per condition). […] H, Analysis of calcium event frequency of striatal (n=248|245|680) and cortical (175|936|885) neurons in control, chronic and withdrawal conditions. I-J, Volcano plot comparing bulk RNAseq data of day 130 forebrain organoids chronic versus control (I) and withdrawal versus control (J) (n=6-9 organoids of 2-3 batches). […] Samples were analyzed with one-way ANOVA followed by unpaired Mann-Whitney test.\n(§2) A, Representative 130 day old GCAMP recordings of fused organoids with Syn-GCAMP expression either in the cortical, or striatal, or VM tissue in control (left), chronic (middle) and withdrawal (right) condition. […] D, Analysis of calcium event frequency of VM (n=100|278|115) neurons in control, chronic and withdrawal conditions. […] Samples were analyzed with one-way ANOVA followed by unpaired Mann-Whitney test (C, D). E-F, Volcano plots of differentially expressed genes in VM tissue in chronic versus control I and withdrawal versus control (F). G-I, GSEA analysis of three GO terms associated with neural circuit formation (Dendrite Development, Axon Development and Synapse Organization) in forebrain chronic vs control (top) and forebrain withdrawal versus control (bottom).\nOrganoids were grown until […]. GCAMP was recorded using an Olympus Spinning Disk (see Microscopy section). In brief, 20× magnification and an exposure time of 65 ms per frame (continuous recording) were used for up to 6.5 min of continuous recording. For trace extraction, recordings were scaled down from 2048×2048 to 512×512 pixels. Trace extraction was performed using the opensource software package CaImAn (Flatiron Institute).\n(§3) Here, we used the neural multi-tissue organoids to test the effects of cocaine on the establishment of the dopaminergic system. Cocaine is a dopamine reuptake inhibitor, which binds to the dopamine transporter (DAT) and inhibits the reuptake of dopamine after release and thus increases the available levels of dopamine to target cells. While the effects of cocaine on the adult brain are relatively well understood, not much is known about the effects of cocaine on the development of the CNS-predominantly because of the lack of an effective model system. We tested the effects of chronic cocaine exposure and its potential effect on the establishment of the dopaminergic system. […] We chronically treated fused organoids with cocaine from day 40 until day 130 and generated a withdrawal condition which was not exposed to cocaine from day 105 onwards (FIG. 17A).\nIn vivo, cocaine exposure has been associated with changes in neural activity."}, "[3]": {"tested_on": "forebrain and VM tissue of fused organoids", "assay": "Chronic cocaine treatment of fused organoids: bulk RNAseq", "conditions": "for transcriptional change (bulk RNAseq): day 130", "protocol": "as §1, §2, §3"}, "[4]": {"tested_on": "ventral midbrain organoids", "assay": "CHIR dose curve (Wnt activation) for midbrain induction in ventral midbrain organoids (qPCR OTX2, FOXA2, TH)", "protocol": "FIG. 2A-D: qPCR analysis of markers of ventral midbrain of the dose curving experiment to generate ventral midbrain organoids. Two separate dose curving experiments were performed, where first the correct dosage of sonic hedgehog activation was tested (FIG. 2A, floor plate marker FOXA2). Secondly, we performed qPCR to test for appropriate concentrations of posteriorization using Wnt activation. Dopaminergic neurons are born in the very ventral floor plate of the posterior midbrain, next to the midbrain-hindbrain boundary, thus the Forebrain and Midbrain marker OTX2 should still be expressed, whereas the hindbrain is OTX2 negative. We found a concentration of 0.8-1 μM sufficient to introduce midbrain (FIG. 2B), while the floor plate marker FOXA2 was still expressed (FIG. 2C). qPCR for the dopaminergic marker TH (Tyrosine hydroxylase, the rate-limiting enzyme for dopamine synthesis) confirmed this concentration of Wnt activation, with a sharp drop of TH expression starting at 1.2 μM CHIR (FIG. 2D).\nAll qPCR data are relative to the expression of TBP.\nFor each condition, 6-8 organoids were collected at indicated time points into 2 ml RNAse-free tubes. RNA was extracted using the Rneasy mini kit (Qiagen). […]\nQuantification was performed in excel by calculating ΔCt relative to TBP. […]"}}, "note": "Where “and” joins values, the source holds several entries; their conditions need not be identical. Identical values can stand only once. Counter-ions that a name gives are not always drawn."}
{"compound": "COC(=O)[C@H]1[C@@H](OC(=O)c2ccccc2)C[C@@H]2CC[C@H]1N2C", "note": "[cocaine hydrochloride]", "values": [{"measurement": "diameter of TH+ varicosities, rescue by withdrawal", "setting": "[1]; 25-day long withdrawal, striatal and cortical tissue", "result": "failed to rescue"}, {"measurement": "density of TH+ varicosities on axons", "setting": "[1]; cortical tissue", "result": "significantly increased"}, {"measurement": "diameter of TH+ varicosities", "setting": "[1]; cortical tissue", "result": "significantly reduced"}, {"measurement": "density of TH+ varicosities on axons", "setting": "[1]; striatal tissue", "result": "significantly increased"}, {"measurement": "diameter of TH+ varicosities", "setting": "[1]; striatal tissue", "result": "significantly reduced"}, {"measurement": "calcium event duration", "setting": "[2]; VM neurons, chronic condition, day 130", "result": "decrease"}, {"measurement": "calcium event duration", "setting": "[2]; VM neurons, cocaine withdrawal", "result": "without recovery"}, {"measurement": "calcium event frequency", "setting": "[2]; cocaine treated vs control", "result": "fewer events per minute"}, {"measurement": "calcium event frequency", "setting": "[2]; withdrawal condition", "result": "only partially recover"}, {"measurement": "calcium event duration", "setting": "[2]; cortical patterned neurons, chronic condition, day 130, vs control, hydrochloride", "result": "increase"}, {"measurement": "calcium event duration", "setting": "[2]; cortical patterned neurons, chronic condition, day 130, vs control, listed as cocaine, hydrochloride", "result": "significant increase"}, {"measurement": "calcium event duration", "setting": "[2]; striatal neurons, chronic condition, day 130, vs control, hydrochloride", "result": "significant decrease"}, {"measurement": "calcium event duration", "setting": "[2]; striatal neurons, chronic condition, day 130, vs control, listed as cocaine, hydrochloride", "result": "significantly shorter"}, {"measurement": "calcium event duration", "setting": "[2]; withdrawal condition, striatal and cortical neurons", "result": "not significantly different from the chronic condition"}, {"measurement": "transcriptional change (bulk RNAseq)", "setting": "[3]; VM tissue, chronic and withdrawal vs control", "result": "only little transcriptional change"}, {"measurement": "genes associated with interferon response (such as IFITM2 and IFITM3)", "setting": "[3]; forebrain, chronic and withdrawal conditions", "result": "upregulated"}, {"measurement": "transcriptional change (bulk RNAseq)", "setting": "[3]; forebrain, chronic and withdrawal conditions vs control", "result": "a broad list of genes was differentially expressed"}, {"measurement": "genes associated with neural circuit formation (GO term analysis)", "setting": "[3]; forebrain, chronic and withdrawal vs control", "result": "downregulation"}, {"measurement": "GSEA of GO terms dendrite development, axon development and synapse organization", "setting": "[3]; forebrain, chronic exposure and withdrawal vs control", "result": "consistently and significantly downregulated"}]}
{"compound": "Cc1cnc(-c2cnc(NCCNc3ccc(C#N)cn3)nc2-c2ccc(Cl)cc2Cl)[nH]1", "note": "[CHIR, 6-[[2-[[4-(2,4-dichlorophenyl)-5-(5-methyl-1H-imidazol-2-yl)-2-pyrimidinyl]amino]ethyl]amino]-3-pyridinecarbonitrile]", "values": [{"measurement": "concentration sufficient for midbrain induction", "setting": "[4]; OTX2, FOXA2 and TH still expressed (qPCR)", "result": "0.8 to 1 µM and 1 µM"}, {"measurement": "concentration at which sharp drop of TH expression starts", "setting": "[4]; qPCR, relative to TBP", "result": "≥ 1.2", "unit": "µM"}]}
